Measurements taken from patent publication US11767322B2 (BRISTOL-MYERS SQUIBB COMPANY, priority 2020, dated 2023).
Where two headings read alike, the source gives them in different places.

Legend:
[1] = target: T1, His-GST-TVMV-hRIPK1(1-324) (Homo sapiens, UniProt Q13546); assay: biochemical; format: binding
T1 construct: The coding region of human RIPK1(1-324) flanked by NdeI site at 5′ end; made in house; host or cells: Spodoptera frugiperda Sf9 insect cells (baculovirus, Bac-to-Bac)
T1 sequence (Q13546 1-324): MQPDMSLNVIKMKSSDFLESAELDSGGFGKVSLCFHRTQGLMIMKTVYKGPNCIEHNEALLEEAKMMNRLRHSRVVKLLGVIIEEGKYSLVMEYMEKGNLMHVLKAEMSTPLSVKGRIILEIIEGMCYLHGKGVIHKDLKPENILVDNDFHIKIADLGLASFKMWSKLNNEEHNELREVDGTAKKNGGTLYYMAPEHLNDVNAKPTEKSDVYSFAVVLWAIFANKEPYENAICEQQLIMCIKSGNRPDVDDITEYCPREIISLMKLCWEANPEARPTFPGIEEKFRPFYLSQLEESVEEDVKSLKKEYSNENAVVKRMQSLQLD

[2] = test system: MLKL phosphorylation in HT29-L23 human colorectal adenocarcinoma cells; assay: MLKL phosphorylation high-content assay; format: cell-based
[3] = HTRF probe displacement, 1 h at rt, read-out: RIPK1 IC50
[4] = Homo sapiens, 6 h, read-out: pMLKL IC50, HT29-L23 cells, necroptosis induced with TNFα, SMAC mimetic and Z-VAD, 6 h, maximal inhibition defined by Nec1s
[5] = read-out: pMLKL IC50, HT29-L23 cells, necroptosis induced with TNFα, SMAC mimetic and Z-VAD, 6 h, maximal inhibition defined by Nec1s

Compound	IC50 [1, 3] [nM]	IC50 [2, 4] [nM]	IC50 [2, 5] [nM]	IC50 ([1]; Table 22, compounds of the present invention, read-out: RPIK1 IC50) [nM]	IC50 ([2]; Homo sapiens, read-out: pMLKL IC50, Table 22, compounds of the present invention) [nM]
[2H]C([2H])([2H])c1ccc(-c2ccn3nc(N)nc3c2)c(F)c1C(=O)NCC1(C(O)c2ccc(F)cc2)CC1 (single isomer, unassigned) [Example 307, 3-(2-amino-[1,2,4]triazolo[1,5-a]pyridin-7-yl)-2-fluoro-N-((1-((4-fluorophenyl) (hydroxy)methyl)cyclopropyl)methyl)-6-(methyl-d3)benzamide]	9.6	14	–	–	–
[2H]C([2H])(CC([2H])(O)c1ccc(Cl)cc1)NC(=O)c1c(Cl)ccc(-c2ccn3nc(N)nc3c2)c1F (single isomer, unassigned) [Example 76, 3-(2-amino-[1,2,4]triazolo[1,5-a]pyridin-7-yl)-6-chloro-N-(3-(4-chlorophenyl)-3-hydroxypropyl-1,1,3-d3)-2-fluorobenzamide]	1.5	–	3.3	–	–
[2H]C([2H])([2H])c1ccc(-c2ccn3nc(N)nc3c2)c(F)c1C(=O)NCC(F)(F)C(C)(O)c1ccc(F)cc1 (single isomer, unassigned) [Example 242, 3-(2-amino-[1,2,4]triazolo[1,5-a]pyridin-7-yl)-N-(2,2-difluoro-3-(4-fluorophenyl)-3-hydroxybutyl)-2-fluoro-6-(methyl-d3)benzamide]	9.1	–	1	–	–
Cc1ccc(-c2ccn3nc(N)nc3c2)c(F)c1C(=O)NCC(F)(F)C(C)(O)c1ccc(C(F)(F)F)cc1 (stereo not drawn) [Example 227, 3-(2-amino-[1,2,4]triazolo[1,5-a]pyridin-7-yl)-N-(2,2-difluoro-3-hydroxy-3-(4-(trifluoromethyl)phenyl)butyl)-2-fluoro-6-methylbenzamide]	15	0.7	–	–	–
Nc1nc2cc(-c3ccc(Cl)c(C(=O)NCCC(O)c4ccc(F)cc4)c3F)ccn2n1 (stereo not drawn) [Example 78, 3-(2-amino-[1,2,4]triazolo[1,5-a]pyridin-7-yl)-6-chloro-2-fluoro-N-(3-(4-fluorophenyl)-3-hydroxypropyl)benzamide]	19	9.9	–	19	9.9
Cc1ccc(-c2ccn3nc(N)nc3c2)c(F)c1C(=O)NCCC(O)c1cccc(C#N)c1 (stereo not drawn) [Example 140, 3-{2-amino-[1,2,4]triazolo[1,5-a]pyridin-7-yl}-N-[3-(3-cyanophenyl)-3-hydroxypropyl]-2-fluoro-6-methylbenzamide]	0.6	13	–	–	–
[2H]C([2H])([2H])C(O)(c1ccc(F)cc1)C(F)CNC(=O)c1c(C(F)F)ccc(-c2ccn3nc(N)nc3c2)c1F (single isomer, unassigned) [Example 195, 3-(2-amino-[1,2,4]triazolo[1,5-a]pyridin-7-yl)-6-(difluoromethyl)-2-fluoro-N-(2-fluoro-3-(4-fluorophenyl)-3-hydroxybutyl-4,4,4-d3)benzamide]	8.4	1	–	–	–
[2H]C([2H])([2H])c1ccc(-c2ccn3nc(N)nc3c2)c(F)c1C(=O)NCC1(C([2H])(O)c2ccc(F)cc2)CC1 (single isomer, unassigned) [Example 309, 3-(2-amino-[1,2,4]triazolo[1,5-a]pyridin-7-yl)-2-fluoro-N-((1-((4-fluorophenyl) (hydroxy)methyl-d)cyclopropyl)methyl)-6-(methyl-d3)benzamide]	6.2	11	–	–	–
Nc1nc2cc(-c3ccc(Cl)c(C(=O)NCC(F)(F)C(O)c4cc(Cl)ccc4F)c3F)ccn2n1 (stereo not drawn) [Example 180, 3-(2-amino-[1,2,4]triazolo[1,5-a]pyridin-7-yl)-6-chloro-N-(3-(5-chloro-2-fluorophenyl)-2,2-difluoro-3-hydroxypropyl)-2-fluorobenzamide]	2	–	10	–	–
Cc1ccc(-c2ccn3nc(N)nc3c2)c(F)c1C(=O)NCC(F)(F)[C@@H](O)c1ccc(F)cc1 (single isomer, unassigned) [Example 30]	4.5	0.5	–	–	–
Cc1ccc(C(O)C(F)(F)CNC(=O)c2c(Cl)ccc(-c3ccn4nc(N)nc4c3)c2F)c(F)c1 (stereo not drawn) [Example 182, 3-(2-amino-[1,2,4]triazolo[1,5-a]pyridin-7-yl)-6-chloro-N-(2,2-difluoro-3-(2-fluoro-4-methylphenyl)-3-hydroxypropyl)-2-fluorobenzamide]	1.2	–	2.9	–	–
Nc1nc2cc(-c3ccc(Cl)c(C(=O)NCC(F)(F)C(O)c4cccc(F)c4F)c3F)ccn2n1 (single isomer, unassigned) [Example 167, 3-(2-amino-[1,2,4]triazolo[1,5-a]pyridin-7-yl)-6-chloro-N-(3-(2,3-difluorophenyl)-2,2-difluoro-3-hydroxypropyl)-2-fluorobenzamide]	15	–	7.8	–	–
Cc1ccc(-c2ccn3nc(N)nc3c2)c(F)c1C(=O)NCC(F)(F)C(O)c1c(F)cc(F)cc1F (single isomer, unassigned) [Example 283, 3-(2-amino-[1,2,4]triazolo[1,5-a]pyridin-7-yl)-N-(2,2-difluoro-3-hydroxy-3-(2,4,6-trifluorophenyl)propyl)-2-fluoro-6-methylbenzamide]	0.5	1	–	–	–
Cc1ccc(-c2ccn3nc(N)nc3c2)c(F)c1C(=O)NCC(C)(F)C(O)c1ccc(F)cc1 (single isomer, unassigned) [Example 205, 3-(2-amino-[1,2,4]triazolo[1,5-a]pyridin-7-yl)-2-fluoro-N-(2-fluoro-3-(4-fluorophenyl)-3-hydroxy-2-methylpropyl)-6-methylbenzamide]	6.2	–	5.1	–	–
Cc1ccc(-c2ccn3nc(N)nc3c2)c(F)c1C(=O)NCCC(O)c1ccc(C(F)(F)F)cc1 (stereo not drawn) [Example 55, 3-(2-amino-[1,2,4]triazolo[1,5-a]pyridin-7-yl)-2-fluoro-N-(3-hydroxy-3-(4-(trifluoromethyl)phenyl)propyl)-6-methylbenzamide]	0.3	0.9	–	–	–
Nc1nc2cc(-c3ccc(Cl)c(C(=O)NCC(O)C(F)(F)c4ccc(F)cc4)c3F)ccn2n1 (single isomer, unassigned) [Example 292, 3-(2-amino-[1,2,4]triazolo[1,5-a]pyridin-7-yl)-6-chloro-N-(3,3-difluoro-3-(4-fluorophenyl)-2-hydroxypropyl)-2-fluorobenzamide]	2.4	1	–	–	–
Nc1nc2cc(-c3ccc(Cl)c(C(=O)NCC(F)(F)C(O)c4cccc(F)c4F)c3F)ccn2n1 (single isomer, unassigned) [Example 166, 3-(2-amino-[1,2,4]triazolo[1,5-a]pyridin-7-yl)-6-chloro-N-(3-(2,3-difluorophenyl)-2,2-difluoro-3-hydroxypropyl)-2-fluorobenzamide]	2.1	5.1	–	–	–
[2H]C([2H])([2H])c1ccc(-c2ccn3nc(N)nc3c2)c(F)c1C(=O)NC[C@H](F)[C@](C)(O)c1ccc(F)cc1 [Example 215, 3-(2-amino-[1,2,4]triazolo[1,5-a]pyridin-7-yl)-2-fluoro-N-((1S,3R)-2-fluoro-3-(4-fluorophenyl)-3-hydroxybutyl)-6-(methyl-d3)benzamide]	8.7	6.6	–	–	–
Nc1nc2cc(-c3ccc(Cl)c(C(=O)NCCC(O)c4ccc(F)cc4)c3F)ccn2n1 (single isomer, unassigned) [Example 79, 3-(2-amino-[1,2,4]triazolo[1,5-a]pyridin-7-yl)-6-chloro-2-fluoro-N-(3-(4-fluorophenyl)-3-hydroxypropyl)benzamide]	4.8	19	–	–	–
Cc1ccc(-c2ccn3nc(N)nc3c2)c(F)c1C(=O)NCC(F)(F)C(O)c1ccnc(C(F)(F)F)c1 (single isomer, unassigned) [Example 261, 3-(2-amino-[1,2,4]triazolo[1,5-a]pyridin-7-yl)-N-(2,2-difluoro-3-hydroxy-3-(2-(trifluoromethyl)pyridin-4-yl)propyl)-2-fluoro-6-methylbenzamide]	40	–	79	–	–
Nc1nc2cc(-c3ccc(Cl)c(C(=O)NCC(F)(F)C(O)c4cccc(Cl)c4)c3F)ccn2n1 (stereo not drawn) [Example 193, 3-(2-amino-[1,2,4]triazolo[1,5-a]pyridin-7-yl)-6-chloro-N-(3-(3-chlorophenyl)-2,2-difluoro-3-hydroxypropyl)-2-fluorobenzamide]	8.7	–	15	–	–
Cc1cc(F)c(-c2ccn3nc(N)nc3c2)cc1C(=O)NCC(F)(F)C(C)(O)c1ccc(Cl)cc1 (single isomer, unassigned) [Example 225, 5-(2-amino-[1,2,4]triazolo[1,5-a]pyridin-7-yl)-N-(3-(4-chlorophenyl)-2,2-difluoro-3-hydroxybutyl)-4-fluoro-2-methylbenzamide]	19	3.8	–	–	–
Nc1nc2cc(-c3ccc(Cl)c(C(=O)NCC(F)(F)C(O)C4CCC(F)(F)CC4)c3F)ccn2n1 (stereo not drawn) [Example 257, 3-(2-amino-[1,2,4]triazolo[1,5-a]pyridin-7-yl)-6-chloro-N-(3-(4,4-difluorocyclohexyl)-2,2-difluoro-3-hydroxypropyl)-2-fluorobenzamide]	8.9	5.9	–	–	–
